US12172986B2, “Splicing modulator antibody-drug conjugates and methods of use” (EISAI R&D MANAGEMENT CO., LTD., priority 2018, dated 2024)

Legend:
Ad2.1 pre-mRNA splicing = assay: In vitro splicing (IVS) RT-qPCR, Ad2.1 pre-mRNA, HeLa nuclear extract; assay type: biochemical; details: payload of the ADC; read-out: qPCR-IVS-AT S Gmean IC50 (nm) Ad2.1 HELA.2
Procedure: HeLa nuclear extract preparation: HeLa S3 cell pellets were resuspended in hypotonic buffer (10 mM HEPES pH 7.9, 1.5 mM MgCl2, 10 mM KCl, 0.2 mM PMSF, 0.5 mM DTT) and the suspension was brought up to a total of 5 packed cell volume (PCV). After centrifugation, the supernatant was discarded, and the cells were brought up to 3 PCV with hypotonic buffer and incubated on ice for 10 min. Cells were lysed using a dounce homogenizer and then centrifuged. […] The nuclei were gently mixed for 30 min before centrifuging. The supernatant (nuclear extract) was then dialyzed into storage buffer (20 mM HEPES pH 7.9, 100 mM KCl, 0.2 mM EDTA, 20% glycerol, 0.2 mM PMSF, 0.5 mM DTT). Protein concentration was determined using NanoDrop 8000 UV-Vis spectrophotometer (ThermoFisher Scientific).
IVS: All Ad2-derived sequences (Pellizzoni et al. (1998) Cell 95(5):615-24) were cloned into pcDNA3.1(+) vector (Promega) using 5′ EcoRI and 3′ Xbal restriction sites. The plasmids were linearized using Xbal and used as DNA templates in in vitro transcription reactions. The FtzΔi intron-less plasmid (Luo and Reed (1999) 96(26):14937-42) was linearized using EcoRI. All RNAs were in vitro transcribed and then purified using MEGAScript T7 (Invitrogen) and MegaClear (Invitrogen) kits, respectively. For splicing reactions using Ad2 variant pre-mRNAs, 1 μL reactions were prepared using 8 μg nuclear extracts prepared from HeLa S3, 2 ng pre-mRNA, 0.2 ng FTZΔi, and varying concentrations of compounds or DMSO. After a 15 min pre-incubation at 30° C., 1 μL splicing activation buffer (0.5 mM ATP, 20 mM creatine phosphate, 1.6 mM MgCl2) was added, and the reactions were incubated for 90 min at 30° C. The reactions were then quenched with 13 μL DMSO, and 25 nL was used for RT-qPCR. RT-qPCR reactions were prepared using TaqMan RNA-to-CT 1-step kit (Life Technologies), RNA from splicing reactions, Ad2 (forward: [sequence]; reverse: [sequence]; probe: [sequence]) and Ftz (forward: [sequence]; reverse: [sequence]; probe: [sequence]) mRNA primer-probe sets. Prism 7 (Graphpad) was used for non-linear regression curve fitting of the formed spliced product and normalized to the control (DMSO) sample.

Ad2.2 pre-mRNA splicing = assay: In vitro splicing (IVS) RT-qPCR, Ad2.2 pre-mRNA, HeLa nuclear extract; assay type: biochemical; details: payload of the ADC; read-out: qPCR-IVS-AT S GMean IC50 (nM) Ad2.2 HELA.2
Procedure: To evaluate payload activity in a cell-free system, an in vitro splicing assay was performed. The payloads were incubated with nuclear extracts and pre-mRNA substrate minigenes.
HeLa nuclear extract preparation: HeLa S3 cell pellets were resuspended in hypotonic buffer (10 mM HEPES pH 7.9, 1.5 mM MgCl2, 10 mM KCl, 0.2 mM PMSF, 0.5 mM DTT) and the suspension was brought up to a total of 5 packed cell volume (PCV). After centrifugation, the supernatant was discarded, and the cells were brought up to 3 PCV with hypotonic buffer and incubated on ice for 10 min. Cells were lysed using a dounce homogenizer and then centrifuged. […]. The nuclei were gently mixed for 30 min before centrifuging. The supernatant (nuclear extract) was then dialyzed into storage buffer (20 mM HEPES pH 7.9, 100 mM KCl, 0.2 mM EDTA, 20% glycerol, 0.2 mM PMSF, 0.5 mM DTT). Protein concentration was determined using NanoDrop 8000 UV-Vis spectrophotometer (ThermoFisher Scientific).
IVS: All Ad2-derived sequences (Pellizzoni et al. (1998) Cell 95(5):615-24) were cloned into pcDNA3.1(+) vector (Promega) using 5′ EcoRI and 3′ Xbal restriction sites. The plasmids were linearized using Xbal and used as DNA templates in in vitro transcription reactions. The FtzΔi intron-less plasmid (Luo and Reed (1999) 96(26):14937-42) was linearized using EcoRI. All RNAs were in vitro transcribed and then purified using MEGAScript T7 (Invitrogen) and MegaClear (Invitrogen) kits, respectively. For splicing reactions using Ad2 variant pre-mRNAs, 1 μL reactions were prepared using 8 μg nuclear extracts prepared from HeLa S3, 2 ng pre-mRNA, 0.2 ng FTZΔi, and varying concentrations of compounds or DMSO. After a 15 min pre-incubation at 30° C., 1 μL splicing activation buffer (0.5 mM ATP, 20 mM creatine phosphate, 1.6 mM MgCl2) was added, and the reactions were incubated for 90 min at 30° C. The reactions were then quenched with 13 μL DMSO, and 25 nL was used for RT-qPCR. RT-qPCR reactions were prepared using TaqMan RNA-to-CT 1-step kit (Life Technologies), RNA from splicing reactions, Ad2 (forward: […]; reverse: […]; probe: […]) and Ftz (forward: […]; reverse: […]; probe: […]) mRNA primer-probe sets. Prism 7 (Graphpad) was used for non-linear regression curve fitting of the formed spliced product and normalized to the control (DMSO) sample. […] In the presence of payload, a decrease in the amount of spliced product was observed.

THP1.1 = assay: Payload cell potency and lethality CTGlo 72 h, THP1.1; assay type: cell-based; details: for CTGlo-AT S GMean LD50 (nM) 72 h THP1.1: payload; for GI50: read-out: CTGlo-AT S GMean GI50 (nM) Ad2.2 HELA.2
[1] = Caco-2 permeability of ADC payload; assay type: in vitro ADME; details: human, Caco-2, payload; for efflux ratio at 2 h, 10 μM: B-A/A-B, read-out: Eflux ratio
Procedure: (§1) Integrity of cell monolayer was confirmed by TEER (transepithelial electrical resistance) and Lucifer yellow. Payloads were spiked in duplicate at 10 μM, separately, on both sides of the cell monolayer. Permeability rates from the apical to basolateral (A-B) direction and the basolateral to apical (B-A) direction were determined by sampling aliquots from both chambers immediately after treatment (t=0) and following incubation for 2 hours. Samples were protein precipitated with organic solvent containing internal standard and analyzed by LC-MS/MS (SCIEX; API 5500). The area ratio responses of payload/internal standard over time in both directions were used to generate permeability (cm/see) values. Efflux ratio was calculated by dividing B-A/A-B. Control compounds for low and high permeability and efflux behaved as expected.

Caco-2 cells = assay: Caco-2 permeability of ADC payload; assay type: in vitro ADME
Procedure: as §1

SMILES | IC50 (Ad2.1 pre-mRNA splicing) [µM] | IC50 (Ad2.2 pre-mRNA splicing) [nM] | CTGlo-AT S GMean LD50 (nM) 72 h THP1.1 (THP1.1) [nM] | efflux ratio at 2 h, 10 μM [1] | GI50 (THP1.1) [nM] | Perm. Mean Caco-2 A-B Perm (10e-6 cm/s) (Caco-2 cells; corresponding free payload of the ADC, A-B) | Perm. Mean Caco-2 B-A Perm (10e-6 cm/s) (Caco-2 cells; corresponding free payload of the ADC, B-A) | efflux ratio (in words) (Caco-2 cells; payload) | Papp B→A at 2 h, 10 μM ([1]; 10 μM, 2 hours, basolateral to apical, read-out: Permeability Mean Caco-2 B-A Perm (10e-Gcm/s)) [×10⁻⁶ cm/s]
CC[C@H](O)[C@@H](C)[C@H]1O[C@@H]1C[C@H](C)/C=C/C=C(\C)[C@H]1OC(=O)C[C@H](O)CC[C@@](C)(OC(=O)N2CCNCC2)[C@@H](OC(C)=O)/C=C/[C@@H]1C [D13] | 0.0113 | 8.82 | 3.358 | 19.1 | – | – | – | – | –
C/C(=C\c1cc(F)cc(N2CCN(CC(=O)O)CC2)c1)[C@H]1OC(=O)C[C@H](O)CC[C@H](C)[C@@H](OC(=O)N2CCNCC2)/C=C/[C@@H]1C [D33, 2-(4-(3-fluoro-5-((E)-2-((2S,3S,6R,7S,10R,E)-10-hydroxy-3,7-dimethyl-12-oxo-6-((piperazine-1-carbonyl)oxy)oxacyclododec-4-en-2-yl)prop-1-en-1-yl)phenyl)piperazin-1-yl)acetic acid] | 0.0334 | 72.4 | 5202.992 | – | 196 | – | – | – | –
CC[C@H](O)[C@@H](C)[C@H]1O[C@@H]1C[C@@](C)(O)/C=C/C=C(\C)[C@H]1OC(=O)C[C@H](O)CC[C@@](C)(O)[C@@H](OC(=O)N2CCN(C3CCCCCC3)CC2)/C=C/[C@@H]1C [D11, E7107] | 0.0105 | 9.36 | 8.086 | – | 1.35 | – | – | – | –
CC[C@H](O)[C@@H](C)[C@H]1O[C@@H]1C[C@@](C)(O)/C=C/C=C(\C)[C@H]1OC(=O)C[C@H](O)CC[C@@](C)(O)[C@@H](OC(=O)N2CCNCC2)/C=C/[C@@H]1C [D12, (2S,3S,6S,7R,10R,E)-7,10-dihydroxy-2-((R,2E,4E)-6-hydroxy-7-((2R,3R)-3-((2R,3S)-3-hydroxypentan-2-yl)oxiran-2-yl)-6-methylhepta-2,4-dien-2-yl)-3,7-dimethyl-12-oxooxacyclododec-4-en-6-yl piperazine-1-carboxylate] | – | – | – | – | – | 0.17 10e-6 cm/s | 0.23 10e-6 cm/s | low efflux ratio | –
C/C(=C\c1cc(F)cc(N2CCN(C(=O)Cn3cccn3)CC2)c1)[C@H]1OC(=O)C[C@H](O)CC[C@H](C)[C@@H](OC(=O)N2CCN(C)CC2)/C=C/[C@@H]1C [D26] | 0.0188 | 14.3 | 28.483 | 2.58 | – | – | – | – | –
CC[C@H](O)[C@@H](C)[C@H]1O[C@@H]1C[C@@](C)(O)/C=C/C=C(\C)[C@H]1OC(=O)C[C@H](O)CC[C@@](C)(OC)[C@@H](OC(=O)N(C)CCNC)/C=C/[C@@H]1C [D20, (2S,3S,6S,7R,10R,E)-10-hydroxy-2-((R,2E,4E)-6-hydroxy-7-((2R,3R)-3-((2R,3S)-3-hydroxypentan-2-yl)oxiran-2-yl)-6-methylhepta-2,4-dien-2-yl)-7-methoxy-3,7-dimethyl-12-oxooxacyclododec-4-en-6-yl methyl(2-(methylamino)ethyl)carbamate] | 0.0109 | 8.75 | 113.557 | – | – | – | – | – | –
CC[C@H](O)[C@@H](C)[C@H]1O[C@@H]1C[C@@](C)(O)/C=C/C=C(\C)[C@H]1OC(=O)C[C@H](O)CC[C@@](C)(OC)[C@@H](OC(=O)N2CCNC(CCC(=O)O)C2)/C=C/[C@@H]1C (stereo partly drawn) [D22, 3-(4-((((2S,3S,6S,7R,10R,E)-10-hydroxy-2-((R,2E,4E)-6-hydroxy-7-((2R,3R)-3-((2R,3S)-3-hydroxypentan-2-yl)oxiran-2-yl)-6-methylhepta-2,4-dien-2-yl)-7-methoxy-3,7-dimethyl-12-oxooxacyclododec-4-en-6-yl)oxy)carbonyl)piperazin-2-yl)propanoic acid] | 0.0663 | 49.1 | 1594.636 | – | – | – | – | – | 0.18
CC[C@H](O)[C@@H](C)[C@H]1O[C@@H]1C[C@H](C)/C=C/C=C(\C)[C@H]1OC(=O)C[C@H](O)CC[C@@](C)(OC(C)=O)[C@@H](OC(=O)N2CCNCC2)/C=C/[C@@H]1C [D9] | 0.0202 | 18.1 | 3.56 | 14 | – | – | – | – | –
